Measurements from patent publication US8399511B2, “Two types of crystalline of pinocembrin, their preparation and their use for manufacture of pharmaceutical compositions” (CSPC Zhongqi Pharmaceutical Technology (Shijiazhuang) Co., …, priority 2008, dated 2013).

Test: In vivo absorption and blood concentration after oral administration of pinocembrin crystalline forms
Set-up: species or system SD rats
Conditions: for Blood concentration of pinocembrin: fasted SD rats, arterial blood, HPLC, group average, 50 mg/kg
Description: • 1. Monocrystal X-ray analysis • Instrument: MAC DIP-2030K area detector • Test condition: tube voltage: 50 KV, tube flow: 80 mA, ω scanning, MoKα, 2θ≦50.0°, scan range: 0-180°, pivot angle: 6°, step: 6°, scan rate: 1.8°/min. • 2. Powder X-ray analysis • Instrument: Rigaku D/max 2550 powder X-ray diffractometer • Test conditions: voltage: 40 KV, current: 150 mA, scan rate: 8°/min. • 3. DSC analysis • Instrument type: Seiko Instruments Inc. Differential Scanning Calorimeter • Test conditions: purge gas: N2, heating rate: 10° C. /min. • Temperature range: 25-250° C. • 4. IR absorbance spectra • Instrument Nicolet FT-IR spectrometer: IMPACT 400 • Test conditions: KBr pellet • 5. HPCL analysis • Instrument: SHIMADZU LC-10Avp high performance liquid chromatography, SPD-M10Avp diode array detector, CLASS-VP chromatography data system; column: Alltch C18(5μ, 150×4.6 mm); test conditions: column temperature: room temperature; wavelength: 290 nm; mobile phase: methanol/phosphate saline pH 3.0 (64/36); flow rate : 1.0 mL/min; injection volume: 20 μL; injection concentration: 500.0 μg/mL Preparation 1: Synthesis of Pinocembrin Sample
18 of SD rats, female and male each half, with body weight of 230˜250 g, were randomized into 3 groups, with 6 rats each group and female half. After 10 hours of fasting but free water intake, the rats were administrated with pinocembrin solid active ingredient powder of α, β or 1:1 (α+β) mixed crystalline forms, at a dose of 50 mg/kg to stomach. Then the arterial blood samples at different times were taken and the contents of pinocembrin were determined.

[1] = 10 min after oral (to stomach) 50 mg/kg solid powder
[2] = 20 min after oral (to stomach) 50 mg/kg solid powder
[3] = 30 min after oral (to stomach) 50 mg/kg solid powder
[4] = 40 min after oral (to stomach) 50 mg/kg solid powder

| Blood concentration of pinocembrin [1] [peak area value] | Blood concentration of pinocembrin [2] [peak area value] | Blood concentration of pinocembrin [3] [peak area value] | Blood concentration of pinocembrin [4] [peak area value] | Blood concentration compared with β crystalline form (same dosage (50 mg/kg) by oral administration, rats) | Blood concentration of pinocembrin (10 min after oral (to stomach) 50 mg/kg solid powder, listed as β crystalline from) [peak area value] | Blood concentration of pinocembrin (20 min after oral (to stomach) 50 mg/kg solid powder, listed as β crystalline from) [peak area value] | Blood concentration of pinocembrin (30 min after oral (to stomach) 50 mg/kg solid powder, listed as β crystalline from) [peak area value] | Blood concentration of pinocembrin (40 min after oral (to stomach) 50 mg/kg solid powder, listed as β crystalline from) [peak area value] | Uptake rate by organism relative to α crystalline form (rat, in vivo) [times] | SMILES |
| --- | --- | --- | --- | --- | --- | --- | --- | --- | --- | --- |
| 8.5 | 15.6 | 7.9 | 7.1 |  |  |  |  |  |  | O=C1C[C@@H](c2ccccc2)Oc2cc(O)cc(O)c21 (stereo in doubt) [1:1 (α + β) crystalline forms, 5,7-dihydroxy-2-phenyl-4-chromanone] |
| 3.8 | 9.7 | 4.4 | 3.5 | obviously lower |  |  |  |  |  | O=C1C[C@@H](c2ccccc2)Oc2cc(O)cc(O)c21 (stereo in doubt) [α crystalline form, 5,7-dihydroxy-2-phenyl-4-chromanone] |
|  |  |  |  |  | 13.2 | 48.6 | 14.6 | 14.2 | ≥ 2 | O=C1C[C@@H](c2ccccc2)Oc2cc(O)cc(O)c21 (stereo in doubt) [β crystalline form, 5,7-dihydroxy-2-phenyl-4-chromanone] |
